Assay results taken from article PMC9029538, “Dosing Colistimethate Every 8 h Results in Higher Plasma Concentrations of Active Colistin Than Every 12-Hourly Dosing without Increase in Nephrotoxicity: A Phase 1 Pharmacokinetics Trial in Healthy Adult Volunteers” (Antibiotics, 2022).
Read-outs that look alike come from different tables or passages of the source. Where a SMILES comes first, the peptide text is derived from it. Bridges are numbered along the chain shown (N, C = ends). [ ]: non-standard residue; d: D form. The star is where a group is joined. Heptanoyl(6-Me) = CC(C)CCCCC(=O)*; X1 = CC[C@H](C)CCCCC(=O)*; Dab = NCC[C@H](N)C(=O)O

Assays:
clinical = assay: clinical
Procedure: (§1) During dosing Period 1, subjects in Cohorts 1, 2, and 3 received 2 to 3 doses of IV CMS (total exposure 5–10 mg/kg) based on the specific cohort regimen. During dosing Period 2, the same subjects then received 2 to 4 doses of 75 mg of CMS via aerosolized administration, and during dosing Period 3, subjects received a combination of IV and aerosolized CMS based on the specific cohort regimen. Each dosing period was followed by a washout period of at least 3 days (Table 1).
(§2) For all plasma PK collections, 3 mL samples of whole blood were drawn into collection tubes containing sodium heparin and placed immediately on ice at specified time intervals. […] The blood was centrifuged at 2500× g within 2 h of collection, and the plasma fraction was removed and frozen at −70 °C for shipment to the Analytical Pharmacology Laboratory at the University of Toledo.
(§3) The PK analysis was conducted using Phoenix™ WinNonlin® Version 6.2 (Pharsight, a Certara Company).
(§4) Concentration versus time profiles were investigated for each of the four colistin analytes. These profiles were augmented by the inclusion of estimated concentrations at additional time points, including dosing Period 1—immediately prior to the final IV dose; dosing Period 3—immediately prior to the final IV dose; and after the final IV dose. The following PK parameters were estimated for each: maximum observed concentration (Cmax), area under the plasma concentration versus time curve, AUC (e.g., AUC 0–inf), AUC 0–t) versus time curve, time to maximum observed concentration (Tmax), elimination half-life (t1/2), slope of the post-distributive terminal portion of plasma concentration versus time curve (Kel), total body clearance/bioavailability (CL/F), and the apparent steady-state volume of distribution/bioavailability ([…]). The concentrations of intravenously administered CMS, aerosolized drug, and both delivery methods used simultaneously were compared. In addition, the presence or absence of a proportionality dose-dependent effect was determined.

[1] = Period 3, Cohort 1: IV 2.5 mg/kg q12h x 2 doses + aerosol 75 mg colistin base activity q12h x 2 doses; plasma after final dose; median (min-max)
Procedure: as §1, §2, §3
Concentration versus time profiles were investigated for each of the four colistin analytes. These profiles were augmented by the inclusion of estimated concentrations at additional time points, including dosing Period 1—immediately prior to the final IV dose; dosing Period 3—immediately prior to the final IV dose; and after the final IV dose. […] In addition, the presence or absence of a proportionality dose-dependent effect was determined.

[2] = Plasma pharmacokinetics after IV CMS (Period 1); conditions: for AUC(0-t) / AUC(0-inf) / clearance / Cmax / Vd / half-life / Tmax: human, in vivo, iv; for clearance: CL; for Vd: Vdss; for Tmax: median (min-max)
Procedure: as §1, §2, §3, §4

[3] = Nephrotoxicity (serum creatinine); format: in vivo, healthy adult volunteers; set-up: serum creatinine increase (absolute): unit not given here; conditions: for serum creatinine increase (absolute) / serum creatinine increase (percent): 24 h post first dose
Procedure: Serum samples for kidney biomarkers were obtained for serum cystatin C, NGAL, and serum β microglobulin levels. Urine samples were obtained for urine protein, creatinine, and microalbumin excretion (see Supplementary Tables S1–S10 and Data S1–S6).
(§5) Safety assessments for TEAEs were conducted, including physical examinations (including neurological evaluations), […], vital signs, clinical laboratory tests, selected biomarkers for acute kidney injury (see section on kidney biomarkers), spirometry, and ECG measurements (see Supplementary Data S5 and S6 for clinical laboratory evaluations and schedule of events). If symptoms of ataxia were present, SARA (Scale for the Assessment and Rating of Ataxia, according to Schmitz-Hübsch et al.) assessment forms were completed to assess their severity.

[4] = test system: A. baumannii or P. aeruginosa; conditions: retrospective study, cited from earlier work
Text: Whether the aerosolized administration of CMS translates into greater drug efficacy against MDROs in the management of HAP/VAP caused by MDROs, however, still remains a matter of controversy, as is the issue of the efficacy of colistin combination therapy. A retrospective study of pneumonia patients who received aerosolized colistin therapy for a median of 14 days reported the microbiological eradication of the causative MDRO (A. baumannii or P. aeruginosa) in 18 out of 21 cases. This high rate of eradication corroborates another retrospective study in which 37 out of 40 patients who re ...

[5] = Neurotoxicity (paresthesias, ataxia, SARA scores); format: in vivo, healthy adult volunteers; conditions: Cohort 1, 2.5 mg/kg q12h × 2 doses; Periods 1 and 3 combined; seven of eighteen
Procedure: as §5

[6] = Period 2, Cohort 2: aerosol 75 mg colistin base activity q8h x 3 doses, plasma after final dose, mean (SD), SD
[7] = 2.5 mg/kg, Period 1, Cohort 1: IV 2.5 mg/kg colistin base activity q12h x 2 doses, plasma after final dose, mean (SD), SD
[8] = 2.5 mg/kg, Period 1, Cohort 2: IV 2.5 mg/kg colistin base activity q8h x 3 doses, plasma after final dose, mean (SD), SD
[9] = 2.5 mg/kg, t1/2, Period 1, Cohort 1: IV 2.5 mg/kg colistin base activity q12h x 2 doses, plasma after final dose, mean (SD), SD
[10] = 2.5 mg/kg, t1/2, Period 1, Cohort 2: IV 2.5 mg/kg colistin base activity q8h x 3 doses, plasma after final dose, mean (SD), SD
[11] = 2.5 mg/kg, Period 1, Cohort 1: IV 2.5 mg/kg colistin base activity q12h x 2 doses, plasma after final dose
[12] = 2.5 mg/kg, Period 1, Cohort 2: IV 2.5 mg/kg colistin base activity q8h x 3 doses, plasma after final dose
[13] = 3.3 mg/kg, Period 1, Cohort 3: IV 3.3 mg/kg colistin base activity q8h x 3 doses, plasma after final dose, mean (SD), SD
[14] = 3.3 mg/kg, t1/2, Period 1, Cohort 3: IV 3.3 mg/kg colistin base activity q8h x 3 doses, plasma after final dose, mean (SD), SD
[15] = 3.3 mg/kg, Period 1, Cohort 3: IV 3.3 mg/kg colistin base activity q8h x 3 doses, plasma after final dose
[16] = elimination t1/2 (half-life, as stated in text), plasma
[17] = Cohort 3, first of four subjects
[18] = Cohort 3, fourth of four subjects
[19] = Cohort 3, second of four subjects
[20] = Cohort 3, third of four subjects

| Compound | AUC(0-t) [2, 7] [ng·h/mL] | AUC(0-t) [2, 8] [ng·h/mL] | AUC(0-inf) [2, 7] [ng·h/mL] | AUC(0-inf) [2, 8] [ng·h/mL] | clearance [2, 7] [mL/min] | clearance [2, 8] [mL/min] | Cmax [2, 7] [ng/mL] | Cmax [2, 8] [ng/mL] | Vd [2, 7] [L] | Vd [2, 8] [L] | half-life [2, 9] [h] | half-life [2, 10] [h] | Tmax [2, 11] [h] | Tmax [2, 12] [h] | AUC(0-t) [2, 13] [ng·h/mL] | AUC(0-inf) [2, 13] [ng·h/mL] | clearance [2, 13] [mL/min] | Cmax [2, 13] [ng/mL] | Vd [2, 13] [L] | half-life [2, 14] [h] | other results |
| --- | --- | --- | --- | --- | --- | --- | --- | --- | --- | --- | --- | --- | --- | --- | --- | --- | --- | --- | --- | --- | --- |
| CC[C@H](C)CCCCC(=O)N[C@@H](CCN)C(=O)N[C@H](C(=O)N[C@@H](CCN)C(=O)N[C@H]1CCNC(=O)[C@H]([C@@H](C)O)NC(=O)[C@H](CCN)NC(=O)[C@H](CCN)NC(=O)[C@H](CC(C)C)NC(=O)[C@@H](CC(C)C)NC(=O)[C@H](CCN)NC1=O)[C@@H](C)O [colistin A] (X1-[Dab]T[Dab][Dab][Dab][dL]L[Dab][Dab]T; lactam 4-C) | 21800 | 30400 | 23800 | 33000 | 103 | 74.5 | 3950 | 5360 | 29.5 | 21.7 | 3.32 | 3.47 | 1.02 | 0.6 | 49100 | 52400 | 64.5 | 8740 | 22.2 | 4.22 | t1/2 (clinical; Period 2, Cohort 1: aerosol 75 mg colistin base activity q12h x 2 doses, plasma after final dose, mean (SD)): 8.37 h; CL/F (clinical; [6]): 8.12 (0.628) L/h; t1/2 (clinical; [6]): 7.81 (1.33) h; t1/2 (clinical; Period 2, Cohort 3: aerosol 75 mg colistin base activity q6h x 4 doses, plasma after final dose, mean (SD), SD): 26.0 (31.2) h; circulating plasma concentrations following aerosol administration alone (clinical; Period 2, aerosol only): low and not related to the dose administered; AUC(0-t) (clinical; human, in vivo, inhaled or intranasal, 75 mg, AUC(0-t),, SD): 4220 ng·h/mL; CL/F (clinical; human, in vivo, inhaled or intranasal, 75 mg, CL/F): 136 mL/min; Cmax (clinical; human, in vivo, inhaled or intranasal, 75 mg, Cmax,, SD): 493 ng/mL; Vd/F (clinical; human, in vivo, inhaled or intranasal, 75 mg, Vdss/F): 98.7 L; Tmax [1]: 1.43 (0.883 – 2.38) h; Tmax [2, 15]: 1 h; half-life [2, 16]: ~3.5 h; time concentrations stay above the target of 2 μg/mL after dosing ([2]; q8h dosing, 8 h between doses): 6 h |
| CC(C)CCCCC(=O)N[C@@H](CCN)C(=O)N[C@H](C(=O)N[C@@H](CCN)C(=O)N[C@H]1CCNC(=O)[C@H]([C@@H](C)O)NC(=O)[C@H](CCN)NC(=O)[C@H](CCN)NC(=O)[C@H](CC(C)C)NC(=O)[C@@H](CC(C)C)NC(=O)[C@H](CCN)NC1=O)[C@@H](C)O [colistin B] ({Heptanoyl(6-Me)}-[Dab]T[Dab][Dab][Dab][dL]L[Dab][Dab]T; lactam 4-C) | 1940 | 3590 | 3290 | 5150 | 96.8 | 59 | 570 | 891 | 26.3 | 18.1 | 3.45 | 3.64 | 0.667 | 0.6 | 5680 | 7160 | 58.2 | 1390 | 17.3 | 3.55 | circulating plasma concentrations following aerosol administration alone (clinical; in vivo): no detectable concentrations; Tmax [2, 15]: 0.6 h; half-life [2, 16]: ~3.5 h |
| CC[C@H](C)CCCCC(=O)N[C@@H](CCN)C(=O)N[C@H](C(=O)N[C@@H](CCN)C(=O)N[C@H]1CCNC(=O)[C@H]([C@@H](C)O)NC(=O)[C@H](CCN)NC(=O)[C@H](CCN)NC(=O)[C@H](CC(C)C)NC(=O)[C@@H](CC(C)C)NC(=O)[C@H](CCN)NC1=O)[C@@H](C)O [colistin] (X1-[Dab]T[Dab][Dab][Dab][dL]L[Dab][Dab]T; lactam 4-C) | – | – | – | – | – | – | – | – | – | – | – | – | – | – | – | – | – | – | – | – | subjects with reversible nephrotoxicity (elevated serum creatinine at 24 h post first dose) ([3]; Cohort 3, after three doses of IV colistin 2.5 mg/kg q8h (so in the source)): four; serum creatinine increase (absolute) [3, 17]: 0.67; serum creatinine increase (percent) [3, 17]: 95.7%; serum creatinine increase (absolute) [3, 18]: 0.3; serum creatinine increase (percent) [3, 18]: 45.5%; serum creatinine increase (absolute) [3, 19]: 0.82; serum creatinine increase (percent) [3, 19]: 82.0%; serum creatinine increase (absolute) [3, 20]: 0.69; serum creatinine increase (percent) [3, 20]: 73.4%; time over which creatinine increases resolved ([3]; Cohort 3, ±4 days): 10 days; effect on serum creatinine ([3]; dose increased from 5 mg/kg/day (Cohort 1; 2.5 mg/kg q12h) to 7.5 mg/kg/day (Cohort 2; 2.5 mg/kg q8h)): did not result in increases in serum creatinine; patients with negative follow-up cultures ([4]; aerosolized colistin therapy): 37 out of 40; microbiological eradication of the causative MDRO (cases) ([4]; pneumonia patients, aerosolized colistin for a median of 14 days): 18 out of 21; subjects reporting self-limited perioral paresthesias [5]: 39% |
